# Experimental data: publication PMC6410202, “Dual Action of the PN159/KLAL/MAP Peptide: Increase of Drug Penetration across Caco-2 Intestinal Barrier Model by Modulation of Tight Junctions and Plasma Membrane Permeability” (Pharmaceutics, 2019)
# How the values were obtained:
# [1] = system: Acinetobacter baumannii (ATCC 17978); assay: MIC, serial broth dilution; type: cell-based; conditions: ATCC17978, Muller–Hinton broth, 18 h
# Procedure: (§1) The MIC of PN159 on the 6 sensitive and resistant ESKAPE pathogenic strains was determined in cation-adjusted Muller–Hinton broth. […] Minimum inhibitory concentrations (MICs) were determined by using a standard serial broth dilution technique. Briefly, 11-step serial dilutions were prepared in 96-well microtiter plates with three biological replicates per strain. Pathogens were inoculated into each well at a density of 5×10^5 bacteria/mL, and the plates were incubated at 37 °C. Plates were shaken at 300 rpm during incubation for 18 h. Cell growth was monitored by measuring the optical density (OD600 value, Synergy 2 microplate reader BioTek Instruments Inc, Winooski, VT, USA). […] As reference compounds we tested the antimicrobial activity of three bactericidal drugs with different modes of action.
# [2] = system: Enterococcus faecium (ATCC 700221); assay: MIC, serial broth dilution; type: cell-based; conditions: ATCC700221, Brain-Heart-Infusion broth, 18 h, vancomycin resistant strain
# Procedure: as §1
# [3] = system: Klebsiella pneumoniae (ATCC 10031); assay: MIC, serial broth dilution; type: cell-based; conditions: ATCC10031, Muller–Hinton broth, 18 h
# Procedure: as §1
# [4] = system: Staphylococcus aureus (ATCC 29213); assay: MIC, serial broth dilution; type: cell-based; conditions: ATCC29213, Muller–Hinton broth, 18 h
# Procedure: as §1
# [5] = system: Enterobacter cloacae spp. cloacae (ATCC 13047); assay: microbe, parasite or virus in culture; conditions: Enterobacter cloacae, ATCC13047, 18 h
# Procedure: as §1
# [6] = system: Pseudomonas aeruginosa (ATCC 27853); assay: microbe, parasite or virus in culture; conditions: Pseudomonas aeruginosa, ATCC27853, 18 h
# Procedure: as §1
# [7] = system: Caco-2 cells; assay: Impedance measurement (RTCA), Caco-2 cells; type: cell-based; conditions: CPPs 100 μM, 24-h monitoring
# Procedure: Kinetics of epithelial cell reaction to PN159 peptide treatment was monitored by impedance measurement at 10 kHz (RTCA-SP instrument, ACEA Biosciences, San Diego, CA, USA). Impedance measurement is non-invasive, label-free and real time, and linearly correlates with adherence, growth, number and viability of cells. For background measurements 50 μL cell culture medium was added to the wells, then cells were seeded at a density of 6 × 10^3 cells/well to the coated 96-well plates with integrated gold electrodes (E-plate 96, ACEA Biosciences). Cells were cultured for 5–7 days in a CO2 incubator at 37 °C and monitored every 10 min until the end of experiments. Cells were treated with PN159 peptide solutions at 1, 3, 10, 30 and 100 μM concentrations at the beginning of the plateau phase of growth and the effects were followed for 1-h or 24 h. To measure cell recovery, peptide solutions were changed to culture medium and the impedance was monitored for one week. Culture medium was changed every 2 days. Caco-2 cells were also treated with the three selected CPPs, Pep-1, R8 and φ-peptide, at 100 μM concentrations at the beginning of the plateau phase of cell growth for 24-h. Triton X-100 detergent (1 mg/mL) was used as a reference compound to induce cell death. Cell index was defined as Rn-Rb at each time point of measurement, where Rn is the cell-electrode impedance of the well when it contains cells and Rb is the background impedance of the well with the medium alone.
# [8] = in vitro; conditions: human, Caco-2, Papp A-B
# Procedure: (§2) In the permeability experiments inserts with Caco-2 cell layers grown for 3 weeks were transferred to 12-well plates containing 1.5 mL Ringer–Hepes buffer in the lower (basal or acceptor) compartments. In the upper or apical compartments culture medium was replaced by 0.5 mL buffer containing peptide solutions: PN159 peptide at 1, 3, 10 and 30 μM concentrations and CPPs at 100 μM concentration. […] The incubation with permeability markers in the presence of PN159 peptide lasted for 30 min. In case of CPPs the incubation time with fluorescein was 1-h. Samples were collected from both compartments and the concentrations of the marker molecules were determined by a fluorescence multi-well plate reader (Fluostar Optima; excitation wavelength: 485 nm, emission wavelength: 535 nm in the case of fluorescein and excitation wavelength: 584 nm, emission wavelength: 680 nm in the case of Evans-blue labeled albumin). Fluorescein isothiocyanate (FITC)-labelled dextran marker molecules (Table 1) were used at 1 mM concentrations, and fluorescence intensities of collected samples were measured using a Fluorolog FL3-22 (Horiba Jobin Yvon, Paris, France) spectrofluorometer using 492 nm excitation wavelength, 515 nm emission wavelength, and 0.5 s integration time. Drugs were used at 10 μM concentrations and samples were measured by HPLC as described below. The apparent permeability coefficients (Papp) were calculated as described previously. Briefly, cleared volume was calculated from the concentration difference of the tracer in the basal compartments (Δ[C]B) after 30 min and apical compartments at 0 h ([C]A), the volume of the basal compartment (VB; 1.5 mL) and the surface area available for permeability (A; 1.1 cm^2).
# (§3) Analytical measurements were performed on a Merck-Hitachi LaChrom HPLC system equipped with an ultraviolet (UV) and fluorescence detector (Merck, Darmstadt, Germany). All reagents used were of analytical reagent grade. […] In both cases 10μL sample was injected into the chromatographic system.
# (§4) The chromatographic column was maintained at 40 °C and the 5 μL sample was injected onto the column.
# (§5) The column temperature was maintained at 40 °C and a 20 μL sample was injected onto the chromatographic system. […] UV detection was set at 228 nm.
# [9] = system: EpiAirway model; conditions: airway epithelial tissue model, by PN159; cited from earlier work
# [10] = system: Caco-2 cell layers; assay: Penetration of marker and drug molecules across Caco-2 cell layers (Papp A-B); conditions: CPPs 100 μM, 1-h treatment
# Procedure: as §2, §3, §4, §5
# [11] = system: Klebsiella pneumoniae; parameters: method as in PMID 27617798; conditions: cited from earlier work
molecule,measurement,setting,value
"CO[C@@]1(NC(=O)Cc2cccs2)C(=O)N2C(C(=O)O)=C(COC(N)=O)CS[C@@H]21 [Cefoxitin, cefoxitin]",MIC,[1],223 µM
same,MIC,[2],> 223 µM
same,MIC,[3],3.5 µM
same,MIC,[4],6.9 µM
same,MIC,[5],> 223 µM
same,MIC,[6],> 223 µM
"CNC(C)C1CCC(N)C(OC2C(N)CC(N)C(OC3OCC(C)(O)C(NC)C3O)C2O)O1 (stereo not drawn) [Gentamicin, gentamicin]",MIC,[1],0.6 µM
same,MIC,[3],0.6 µM
same,MIC,[4],1.1 µM
same,MIC,[5],1.1 µM
same,MIC,[6],2.3 µM
N=C(N)NCCC[C@H](NC(=O)[C@H](CCCNC(=N)N)NC(=O)[C@H](CCCNC(=N)N)NC(=O)[C@H](CCCNC(=N)N)NC(=O)[C@H](CCCNC(=N)N)NC(=O)[C@H](CCCNC(=N)N)NC(=O)[C@H](CCCNC(=N)N)NC(=O)[C@@H](N)CCCNC(=N)N)C(N)=O [R8],Cell impedance (normalized cell index),[7],decreased the cell impedance
CN/C(=N/CCSCc1nc[nH]c1C)NC#N [cimetidine],"Papp A→B at 30 min, 10 μM",[8]; PN159 treated,34.5 ± 4.5 ×10⁻⁶ cm/s
same,"Papp A→B at 30 min, 10 μM",[8]; control,0.9 ± 0.2 ×10⁻⁶ cm/s
COc1ccc2c3c1O[C@H]1C[C@@H](O)C=C[C@@]31CCN(C)C2 [galantamine],Increase of permeability,[9],2 to 3 fold
cyclo[CGGFWRRRRGE(εAca)G] (cyclo(CGGFWRRRRGE)-{εAca-Gly}) [φ-peptide],Cell impedance (normalized cell index),[7],decreased the cell impedance
same,Permeability for fluorescein marker molecule,[10],elevated permeability
melittin,Concentration needed for inhibition of growth,[11],more than 100 µM
